According to patent US20180044329A1, “3-SUBSTITUTED-1,2,4-OXADIAZOLE AND THIADIAZOLE COMPOUNDS AS IMMUNOMODULATORS” (AURIGENE DISCOVERY TECHNOLOGIES LIMITED, priority 2015, published 2018):

System: Recombinant mouse PD-L1
Assay: Rescue of mouse splenocyte proliferation in the presence of recombinant PD-L1 (CFSE proliferation assay)
Type: cell-based
Settings: compound at 100 nM; anti-CD3/CD28 stimulated mouse splenocytes + PD-L1; 72 h; stimulated splenocyte proliferation normalised as 100%; read-out: Percent rescue of splenocyte proliferation (@100 nM)
Method: Rescue of Mouse Splenocyte Proliferation in the Presence of Recombinant PD-L1
Recombinant mouse PD-L1 (rm-PDL-1, cat no: 1019-B7-100; R&D Systems) were used as the source of PD-L1.
Mouse splenocytes harvested from 6-8 weeks old C57 BL6 mice; RPMI 1640 (GIBCO, Cat #11875); DMEM with high glucose (GIBCO, Cat #D6429); Fetal Bovine Serum [Hyclone, Cat #SH30071.03]; Penicillin (10000 unit/mL)-Streptomycin (10,000 μg/mL) Liquid (GIBCO, Cat #15140-122); MEM Sodium Pyruvate solution 100 mM (100×), Liquid (GIBCO, Cat #11360); Nonessential amino acid (GIBCO, Cat #11140); L-Glutamine (GIBCO, Cat #25030); Anti-CD3 antibody (eBiosciences—16-0032); Anti-CD28 antibody (eBiosciences—16-0281); ACK lysis buffer (1 mL) (GIBCO, Cat #-A10492); Histopaque (density-1.083 gm/mL) (SIGMA 10831); Trypan blue solution (SIGMA-T8154); 2 mL Norm Ject Luer Lock syringe-(Sigma 2014-12); 40 μm nylon cell strainer (BD FALCON 35230); Hemacytometer (Bright line-SIGMA Z359629); FACS Buffer (PBS/0.1% BSA): Phosphate Buffered Saline (PBS) pH 7.2 (Hi-Media TS1006) with 0.1% Bovine Serum Albumin (BSA) (SIGMA A7050) and sodium azide (SIGMA 08591); 5 mM stock solution of CFSE: CFSE stock solution was prepared by diluting lyophilized CFSE with 180 μL of Dimethyl sulfoxide (DMSO C2H6SO, SIGMA-D-5879) and aliquoted in to tubes for further use. Working concentrations were titrated from 10 μM to 1 μM. (eBioscience-650850-85); 0.05% Trypsin and 0.02% EDTA (SIGMA 59417C); 96-well format ELISA plates (Corning CLS3390); BD FACS caliber (E6016); Recombinant mouse B7-H1/PDL1 Fc Chimera, (rm-PD-L1 cat no: 1019-B7-100).
Splenocytes harvested in a 50 mL falcon tube by mashing mouse spleen in a 40 μm cell strainer were further treated with 1 mL ACK lysis buffer for 5 min at room temperature. After washing with 9 mL of RPMI complete media, cells were re-suspended in 3 mL of 1× PBS in a 15 mL tube. 3 mL of Histopaque was added carefully to the bottom of the tube without disturbing overlaying splenocyte suspension. After centrifuging at 800×g for 20 min at room temperature, the opaque layer of splenocytes was collected carefully without disturbing/mixing the layers. Splenocytes were washed twice with cold 1× PBS followed by total cell counting using Trypan Blue exclusion method and used further for cell based assays.
Splenocytes were cultured in RPMI complete media (RPMI+10% fetal bovine serum+1 mM sodium pyruvate+10,000 units/mL penicillin and 10,000 μg/mL streptomycin) and maintained in a CO2 incubator with 5% CO2 at 37° C.
CFSE is a dye that passively diffuses into cells and binds to intracellular proteins. 1×10^6 cells/mL of harvested splenocytes were treated with 5 μM of CFSE in pre-warmed 1× PBS/0.1% BSA solution for 10 min at 37° C. Excess CFSE was quenched using 5 volumes of ice-cold culture media to the cells and incubated on ice for 5 min CFSE labelled splenocytes were further given three washes with ice cold complete RPMI media. CFSE labelled 1×10^5 splenocytes added to wells containing either MDA-MB231 cells (1×10^5 cells cultured in high glucose DMEM medium) or recombinant human PDL-1 (100 ng/mL) and compounds of the present invention. Splenocytes were stimulated with anti-mouse CD3 and anti-mouse CD28 antibody (1 μg/mL each) and the culture was further incubated for 72 h at 37° C. with 5% CO2. Cells were harvested and washed thrice with ice cold FACS buffer and % proliferation was analysed by flow cytometry with 488 nm excitation and 521 nm emission filters.
Percent splenocyte proliferation was analysed using cell quest FACS program and percent rescue of splenocyte proliferation by compound was estimated after deduction of % background proliferation value and normalising to % stimulated splenocyte proliferation (positive control) as 100%. […]

For `CC(O)[C@H](NC(=O)N[C@@H](CC(N)=O)c1nc(-c2cnccn2)no1)C(=O)O` (stereo partly shown) [Compound 21], the activity at 0.1 µM was 39%.
`CC(O)[C@H](NC(=O)N[C@@H](CC(=O)O)c1nc(-c2cnccn2)no1)C(=O)O` (stereo partly shown) [Compound 41] was tested, and the activity at 0.1 µM was 73%.
In the case of `CC(O)[C@H](NC(=O)N[C@@H](CC(N)=O)c1nc(N2CCNCC2)no1)C(=O)O` (stereo partly shown) [Compound 16], the activity at 0.1 µM was 79%.
Compound `CC(O)[C@H](NC(=O)N[C@@H](CC(N)=O)c1nc(N2CCCCC2)no1)C(=O)O` (stereo partly shown) [Compound 15] has an activity at 0.1 µM of 54%.
In the case of `CC(O)[C@H](NC(=O)N[C@@H](CC(N)=O)c1nc(C2CCCCC2)no1)C(=O)O` (stereo partly shown) [Compound 46], the activity at 0.1 µM was 52%.
Compound `CC(O)[C@H](NC(=O)N[C@@H](Cc1cn(-c2ccccc2C(=O)O)nn1)c1nc(-c2cnccn2)no1)C(=O)O` (stereo partly shown) [Compound 31] has an activity at 0.1 µM of 67%.
`CC(O)[C@H](NC(=O)N[C@@H](CCC(=O)O)c1nc(N2CCCC2)no1)C(=O)O` (stereo partly shown) [Compound 39] showed an activity at 0.1 µM of 39%.
`CC(O)[C@H](NC(=O)N[C@@H](CC(N)=O)c1nc(C2(N)CCCCC2)no1)C(=O)O` (stereo partly shown) [Compound 49] gave an activity at 0.1 µM of 16%.
For `CC(O)[C@H](NC(=O)N[C@@H](CCC(=O)O)c1nc([C@@H]2COCCN2)no1)C(=O)O` (stereo partly shown) [Compound 47], the activity at 0.1 µM was 57%.
Work on `CC(O)[C@H](NC(=O)N[C@@H](CC(N)=O)c1nc([C@@H]2COCCN2)no1)C(=O)O` (stereo partly shown) [Compound 43] yielded an activity at 0.1 µM of 92%.
`COc1ccnc(-c2noc([C@H](CC(N)=O)NC(=O)N[C@H](C(=O)O)C(C)O)n2)c1` (stereo partly shown) [Compound 23] gave an activity at 0.1 µM of 27%.
`CC(O)[C@H](NC(=O)N[C@@H](CCC(=O)O)c1nc(-c2cc(F)ccc2F)no1)C(=O)O` (stereo partly shown) [Compound 37] showed an activity at 0.1 µM of 74%.
In the case of `CC(O)[C@H](NC(=O)N[C@@H](CC(N)=O)c1nc(-c2cccc(F)c2)no1)C(=O)O` (stereo partly shown) [Compound 24], the activity at 0.1 µM was 50%.
With `CC(O)[C@H](NC(=O)N[C@@H](CC(N)=O)c1nc(C2(N)CCCC2)no1)C(=O)O` (stereo partly shown) [Compound 48] the activity at 0.1 µM was 47%.
For `O=C(O)CNC(=O)N[C@@H](CC(=O)O)c1nc(N2CCCC2)no1` [Compound 30], the activity at 0.1 µM was 7%.
With `CC(O)[C@H](NC(=O)N[C@@H](CC(N)=O)c1nc(N2CCC[C@H](O)C2)no1)C(=O)O` (stereo partly shown) [Compound 27] the activity at 0.1 µM was 6%.
`CC(O)[C@H](NC(=O)N[C@@H](CC(N)=O)c1nc(-c2ccc(-c3ccccc3)cc2)no1)C(=O)O` (stereo partly shown) [Compound 40] gave an activity at 0.1 µM of 79%.
`C[C@H](NC(=O)N[C@@H](CCCCN)c1nc([C@@H]2CCCN2)no1)C(=O)O` [Compound 52] was tested, and the activity at 0.1 µM was 46%.
`CC(O)[C@H](NC(=O)N[C@@H](CC(N)=O)c1nc([C@@H]2CCCCN2)no1)C(=O)O` (stereo partly shown) [Compound 44] gave an activity at 0.1 µM of 84%.
For `CC(O)[C@H](NC(=O)N[C@@H](CC(N)=O)c1nc([C@@H]2CNCCN2)no1)C(=O)O` (stereo partly shown) [Compound 45], the activity at 0.1 µM was 49%.
With `Cc1ccc(-c2noc([C@H](CC(N)=O)NC(=O)N[C@H](C(=O)O)C(C)O)n2)o1` (stereo partly shown) [Compound 26] the activity at 0.1 µM was 24%.
Compound `CC(O)[C@H](NC(=O)N[C@@H](CC(N)=O)c1nc(-c2ccccn2)no1)C(=O)O` (stereo partly shown) [Compound 20] has an activity at 0.1 µM of 27%.
`C#CC[C@H](NC(=O)N[C@H](C(=O)O)C(C)O)c1nc(-c2cnccn2)no1` (stereo partly shown) [Compound 32] showed an activity at 0.1 µM of 92%.
`CC(O)[C@H](NC(=O)N[C@@H](CC(N)=O)c1nc(-c2cc(Cl)ccn2)no1)C(=O)O` (stereo partly shown) [Compound 22] gave an activity at 0.1 µM of 39%.
Compound `CC(O)[C@H](NC(=O)N[C@@H](CC(=O)O)c1nc(N2CCCC2)no1)C(=O)O` (stereo partly shown) [Compound 38] has an activity at 0.1 µM of 27%.
`NCCCC[C@H](NC(=O)N[C@@H](CC(N)=O)c1nc([C@H]2CCCCN2)no1)C(=O)O` [Compound 34] gave an activity at 0.1 µM of 78%.
`CC(O)[C@H](NC(=O)N[C@@H](CC(N)=O)c1nc(-c2cc(F)ccc2F)no1)C(=O)O` (stereo partly shown) [Compound 25] gave an activity at 0.1 µM of 42%.
Work on `CC(O)[C@H](NC(=O)N[C@@H](CC(N)=O)c1nc([C@@H]2C[C@@H](O)CN2)no1)C(=O)O` (stereo partly shown) [Compound 51] yielded an activity at 0.1 µM of 44%.
